Laboratory results reported in patent publication US5378813A, “Meso-2,5-dimercapto-N,N,N'N'-tetramethyladipamide” (President and Fellows of Harvard College, priority 1992, dated 1995).
Values after ≈ are worked out from the molar mass of the structure shown. Like-named read-outs stand apart in the source and are kept apart here.

Tests used:
[1] = Kinetics of reduction of mercaptoethanol disulfide by 1H NMR spectroscopy; assay type: physicochemical; set-up: kapp^DTA / kapp, apparent rate constant: unit not given here; details: for kapp, apparent rate constant: reduction of mercaptoethanol disulfide (ME^ox), pH 7.0, aqueous phosphate buffer (50 mM)
Procedure: (§1) The thiol-disulfide interchange reaction was quenched by addition of 25 μL of a DCl solution (12 wt % in D2 O) in one tube after 2 min, in another tube after 4 min, and in another tube after 6 min. The same series of experiments was carried out with the meso-DTA solution instead of the DTT solution. The second-order rate constant was calculated from the integrals of the ^1 H NMR spectra.

[2] = Reduction potential and equilibrium constant for reduction of ME^ox by the dithiol; assay type: physicochemical; details: for K, equilibrium constant: reduction of ME^ox with the dithiol in water, pH 7.0, 100 mM phosphate buffer; for ε° (reduction potential): relative to mercaptoethanol (-0.209 V)
Procedure: We used the equilibrium constant between meso-DTA and DTT to determine the values of ε° and K(ME) of meso-DTA.
(§2) After 4 h, a ^1 H NMR spectrum was obtained.

[3] = Determination of pKa (absorbance at 238 nm against pH); assay type: physicochemical; details: for pKa: aqueous buffers; for fraction existing as the thiolate: pH 7.0
Procedure: The absorbance at 238 nm of meso-DTA (100 μL of an 8 mM ethanolic solution of meso-DTA) in various aqueous buffers (3 mL, 50 mM: 2,2-dimethylsuccinate, pH 6.0, 6.4, 6.8; Tris, pH 7.0, 7.3, 7.7, 8.0, 8.3, 8.7; glycine, pH 9.0, 9.5, 10.0) was plotted against pH. This curve was then compared with plots derived from theory.

[4] = Solubility in phosphate buffer; assay type: physicochemical; details: reduced (dithiol) form, phosphate buffer pH 7.0, 100 mM phosphate, 25° C
Procedure: ^e The solubilities were determined in phosphate buffer (pH 7.0, 100

[5] = Kinetics of reduction of glutathione disulfide by 1H NMR spectroscopy; assay type: physicochemical; set-up: kapp^DTA: unit not given here; details: pH 7.0, 298 K
Procedure: as §1

papain-S-S-Me = molecular target: T1, papain-S-S-Me (Carica papaya, UniProt P00784); experiment: Kinetics of reactivation of papain-S-S-Me; assay type: biochemical; set-up: kapp^DTA: unit not given here
T1 construct: purchased Boehringer Mannheim
T1 sequence (P00784 134-345): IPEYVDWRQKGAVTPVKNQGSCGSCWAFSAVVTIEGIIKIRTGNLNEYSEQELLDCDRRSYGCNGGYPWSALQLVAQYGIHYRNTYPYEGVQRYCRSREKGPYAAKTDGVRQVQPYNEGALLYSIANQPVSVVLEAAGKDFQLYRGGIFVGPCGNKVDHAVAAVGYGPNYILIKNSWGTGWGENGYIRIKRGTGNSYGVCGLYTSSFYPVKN
Procedure: (§3) In papain and creatine kinase, the disulfide being reduced is derived from an essential active site cysteine, (Smith et al., Biochemistry 1975, 14, 766-771) and the rate measured is the rate of reactivation of the modified protein. (Shaked et al., Biochemistry 1980, 19, 4156-4166.) DNase is deactivated by the reduction of an internal disulfide. (Shaked et al., Biochemistry 1980, 19, 4156-4166; and Price et al., J. Biol. Chem. 1969, 244, 929-932.)
The papain-S-S-Me was prepared as described by Shaked et al., Biochemistry 1980, 19, 4156-4166. […] Chem. 1991, 56, 2332-2337.

[6] = molecular target: T2, creatine kinase-S-S-glutathione (Oryctolagus cuniculus, UniProt P00563); experiment: Kinetics of reactivation of creatine kinase-S-S-glutathione; assay type: biochemical; set-up: kapp^DTA: unit not given here
T2 construct: purchased Sigma
Source text: as §3
The solution of creatine kinase S-S-glutathione (the procedure was analogous to that of Walters and Gilbert, J. Biol. Chem. 1986, 261, 15372-15377) (10 μL) was diluted with deoxygenated aqueous buffer (pH 7.0, 0.1M imidazole, 2 mM EDTA, 2.5 mL). The diluted solution was added to two flasks (1.0 mL each). […] At various times, a 50-μL aliquot was withdrawn and added to an assay solution (950 μL, pH 6.0, 0.1M imidazole, 2 mM EDTA, 10 mM MgCl2, 2 mM ADP, 20 mM d-glucose, 2 mM NADP, 30 mM phosphocreatine, hexokinase (50 units/mL), glucose-6-phosphate dehydrogenase (35 units/mL)). The rate of increase in absorbance at 340 nm was recorded. (Gerhardt, Methods of Enzymatic Analysis, 3rd ed.; Bergmeyer, Ed.; Verlag Chemie: Weinheim, 1983; Vol. III, pp. 508-524.)

DNase = molecular target: T3, DNase (Bos taurus, UniProt P00639); experiment: Rate of reduction (deactivation) of DNase; assay type: biochemical; set-up: kapp^DTA: unit not given here
T3 construct: purchased Sigma
Source text: as §3

[7] = Equilibrium experiment, meso-DTA with DTT^OX (1H NMR); assay type: physicochemical; details: 50 mM phosphate buffer, pD 7.0
Procedure: as §2

[8] = Equilibration of dl-DTA and meso-DTA (1H NMR); assay type: physicochemical; details: 100 mM phosphate buffer, pD 7.0
Procedure: dl-DTA^OX (2 mg in 0.5 mL of buffered D2 O (100 mM NaPO4, pD 7.0)) and meso-DTA (6 mg in 1.5 mL of buffered D2 O (100 mM NaPO4, pD 7.0)) were mixed in an NMR tube, and ^1 H NMR spectra were taken at various times. The value of Keq was calculated from the ^1 H NMR integrals.

[9] = Relative rate of reduction of disulfides, meso-DTA compared with DTT (summary and calculation); assay type: physicochemical; details: pH 7.0
Source text: as §3
The difference between the calculated and the actual value for proteins could be due to steric interactions, because meso-DTA is a secondary thiol and DTT is a primary thiol. The difference in rates could also be due to the relative difference in hydrophobicities of the two compounds.

[10] = reference value to which all ε° are relative; cited from earlier work
[11] = aqueous buffer, read-out: solubility
[12] = DMH data from Singh and Whitesides 1991
[13] = rate of reactivation, aqueous solution, pH 7.0, 298 K
[14] = reduction of an internal disulfide, aqueous solution, pH 7.0, 298 K

T3 sequence (P00639 23-282): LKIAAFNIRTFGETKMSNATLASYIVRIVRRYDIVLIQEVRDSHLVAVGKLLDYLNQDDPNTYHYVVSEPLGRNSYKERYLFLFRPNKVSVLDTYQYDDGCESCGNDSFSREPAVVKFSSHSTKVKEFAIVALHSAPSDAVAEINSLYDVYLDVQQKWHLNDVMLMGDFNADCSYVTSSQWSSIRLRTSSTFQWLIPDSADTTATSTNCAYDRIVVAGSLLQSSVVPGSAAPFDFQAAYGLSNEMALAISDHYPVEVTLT
T2 sequence (P00563 2-381 limits assumed): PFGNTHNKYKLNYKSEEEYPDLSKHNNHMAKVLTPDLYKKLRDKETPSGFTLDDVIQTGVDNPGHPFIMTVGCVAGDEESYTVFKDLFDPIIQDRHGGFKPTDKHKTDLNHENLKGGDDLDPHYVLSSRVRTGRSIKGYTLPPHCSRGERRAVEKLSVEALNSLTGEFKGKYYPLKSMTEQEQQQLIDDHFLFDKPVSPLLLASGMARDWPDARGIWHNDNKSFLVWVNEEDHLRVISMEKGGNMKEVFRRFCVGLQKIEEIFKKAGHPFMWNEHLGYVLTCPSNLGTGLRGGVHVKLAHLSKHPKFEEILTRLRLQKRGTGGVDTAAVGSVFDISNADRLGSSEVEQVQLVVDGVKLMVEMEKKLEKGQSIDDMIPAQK

Question: What does the source list for CN(C(=O)CS)N(C)C(=O)CS [DMH, N,N'-dimethyl-N,N'-bis(mercaptoacetyl) hydrazine, reference compound]?
Answer: kapp, apparent rate constant [1]: 0.52; K, equilibrium constant [2]: 10^3 M; ε° (reduction potential) [2]: -0.300 V; pKa ([3]; read-out: pKa (first thiol)): 7.6; pKa ([3]; read-out: pKa (second thiol)): 8.9; solubility [4, 11]: 250 mM (≈ 52.1 mg/mL)

Question: For CN(C)C(=O)[C@H](S)CC[C@H](S)C(=O)N(C)C [meso-DTA, meso-2,5-Dimercapto-N,N,N',N'-tetramethyladipamide], which “kapp^DTA / kapp^DTT” value ([1]; mercaptoethanol disulfide, pH 7.0, 298 K) is on record?
Answer: Its value is 7.7.

Question: And the “kapp^DTA / kapp^DMH” value ([1]; mercaptoethanol disulfide, DMH data from Singh and Whitesides 1991)?
Answer: Its value is 1.1.

Question: What about the “kapp, apparent rate constant” value [1] of the same molecule?
Answer: Its value is 0.50.

Question: What about the “kapp^DTA” value ([1]; reduction of mercaptoethanol disulfide, aqueous solution, pH 7.0, 298 K) of the same molecule?
Answer: The value was 0.50.

Question: What about the “kapp^DTA / kapp^DTT” value ([5]; glutathione disulfide) of the same molecule?
Answer: Its value is 5.5.

Question: What about the “kapp^DTA” value ([5]; reduction of glutathione disulfide, aqueous solution) of the same molecule?
Answer: The value was 0.31.

Question: And the “kapp^DTA / kapp^DMH” value (papain-S-S-Me; [12])?
Answer: The value was 0.15.

Question: And the “kapp^DTA / kapp^DTT” value (papain-S-S-Me; pH 7.0, 298 K)?
Answer: Its value is 4.5.

Question: And the “kapp^DTA” value (papain-S-S-Me; [13])?
Answer: Its value is 260.

Question: What about the “kapp^DTA / kapp^DMH” value [6, 12] of the same molecule?
Answer: Its value is 0.5.

Question: And the “kapp^DTA / kapp^DTT” value ([6]; pH 7.0, 298 K)?
Answer: Its value is 3.4.

Question: And the “kapp^DTA” value [6, 13]?
Answer: Its value is 78.

Question: What about the “kapp^DTA / kapp^DMH” value (DNase; [12]) of the same molecule?
Answer: The value was 0.4.

Question: And the “kapp^DTA / kapp^DTT” value (DNase; pH 7.0, 298 K)?
Answer: The value was 1.8.

Question: And the “kapp^DTA” value (DNase; [14])?
Answer: The value was 0.34.

Question: What about the “Keq = [meso-DTA^OX][DTT]/[meso-DTA][DTT^OX]” value [7] of the same molecule?
Answer: Its value is 0.010.

Question: And the “Keq = [meso-DTA^OX][dl-DTA]/[meso-DTA][dl-DTA^OX]” value [8]?
Answer: Its value is 0.10.

Question: What about the “factor by which the equilibrium constant for reduction of ME^OX is less than that of DTT” value [2] of the same molecule?
Answer: The value was 10^2.

Question: What about the “less reducing than DTT by” value [2] of the same molecule?
Answer: Its value is “approximately 56 mV”.

Question: And the “K, equilibrium constant” value [2]?
Answer: Its value is 10^3 M.

Question: What about the “ε° (reduction potential)” value [2] of the same molecule?
Answer: Its value is -0.300 V.

Question: What about the pKa ([3]; read-out: pKa (first thiol)) of the same molecule?
Answer: Its pKa is 7.8 ± 0.2.

Question: And the pKa ([3]; read-out: pKa (second thiol))?
Answer: Its pKa is 8.9 ± 0.2.

Question: What about the “fraction existing as the thiolate” value [3] of the same molecule?
Answer: The value was “approximately 15%”.

Question: And the solubility [4, 11]?
Answer: The solubility was 80 mM (≈ 21.2 mg/mL).

Question: What about the “times faster reduction of disulfide bonds than DTT” value ([9]; aqueous solution) of the same molecule?
Answer: The value was “up to 8 times”.

Question: And the “relative rate of reduction compared with DTT, disulfide bond in proteins” value ([9]; water)?
Answer: Its value is 2-5 times.

Question: For O[C@H](CS)[C@H](O)CS (racemic) [DTT, dithiothreitol, reference compound], which “kapp^DTT” value (DNase; [14]) is on record?
Answer: Its value is 0.19 M^1 g^-1.

Question: And the “K, equilibrium constant” value [2]?
Answer: Its value is 10^5 M.

Question: And the “ε° (reduction potential)” value [2]?
Answer: Its value is -0.356 V.

Question: What about the “fraction existing as the thiolate” value [3] of the same molecule?
Answer: Its value is “about 1%”.

Question: What about the solubility [4] of the same molecule?
Answer: The solubility was “high”.

Question: Which results are given for CN(C)C(=O)[C@H](S)CC[C@@H](S)C(=O)N(C)C (relative stereo) [dl-DTA]?
Answer: factor by which more reducing than meso-DTA [8]: 10; K, equilibrium constant [2]: 10^4 M; ε° (reduction potential) [2]: -0.328 V

Question: With OCCS [ME, Mercaptoethanol] as the molecule, how does the “ε° of the reference mercaptoethanol” value [10] read?
Answer: The value was -0.209 V.
